According to patent US8785399B2, “Antibacterial peptides” (Spiderbiotech S.R.A., priority 2008, dated 2014):
≈ marks a conversion by molar mass, not a printed value. Positions of bridges follow the written chain, without caps; N, C: chain ends. Non-standard residues stand in square brackets, D forms with d. Residues, ends and D or L forms follow the SMILES beside them. Chains are numbered I, II in the order given. Aoc = NCCCCCCCC(=O)O; βAla = NCCC(=O)O

How the values were obtained:
In vivo acute toxicity = assay: In vivo acute toxicity; parameters: species or system CD1 mice; conditions: for symptoms and behavioural alterations (Irwin Test): female CD1 mice
Description: 9-10 weeks female CD1 mice (Charles River Lab. Italia s.r.l. Via Indipendenza, 11-23885 Calco (LC), Italy), weighing on average 28.23 g on the day of experiment were used. Mice were housed for 3 days in a temperature and humidity controlled room before starting experiment, and were fed with standard laboratory chow and water ad libitum.
ID24 was dissolved and sonicated in 0.9% w/v NaCl sterile solution (Sigma-Aldrich) for human administration at the dose concentrations 20 and 40 mg/kg. Compound preparation was conducted just before administration.
Two doses of ID24 were administered with a single intraperitoneal injection to mice: 20 mg/kg and 40 mg/kg. Five animals were treated with each dose of antibiotic. Adverse symptoms were monitored daily for 7 days after injection.
Survivals and clinical/behavioural signs were recorded daily for 14 days.
Main behavioural parameters and clinical signs provided by Irwin Test (Ref. 13).

[1] = In vitro cytotoxicity, MTT dye reduction assay, HeLa; assay type: cell-based; conditions: human, HeLa cells (human epithelial carcinoma)
Description: (§1) HeLa (Human epithelial carcinoma cell line), HepG2 (Human hepatocellular liver carcinoma cell line) and HaCat (human keratinocyte) were grown to confluence and then plated at 20,000, 12,500 and 30,000 cells per well (the optimal cell count for each cell line has been previously determined). After 24 hours, ID24 in DMEM without FBS was added at concentration ranging from 800 and 100 ug/ml. As positive controls 100 uL of cells washed with medium without serum that represent 100% viability and, as negative, 100 uL medium without serum were also added. After 24 hours of incubation at 37° C. in a 5% v/v CO2 atmosphere, 10 ul MTT Reagent [3-(4,5-dimethylthiazol-2-yl)-2,5-diphenyl […] bromide, final concentration 0.5 mg/mL) was added to each well and incubated for 2 to 4 hours. Solubilization of formazan, formed by metabolic reduction of MTT, was obtained using the stop mix solution (10% w/v sodium dodecyl sulphate, 45% v/v dimethyl formamide, adjusted to pH 4.5 with glacial acetic acid). The plates were read in a microplate spectrophotometer. (Biorad, Benchmark plus). Cultures exposed to ID24 or exposed to the medium alone were measured spectrophotometrically at dual wave-length (565-650 nm). The experiment was carried out in three replicates.

Shigella = assay: MIC vs clinical isolates, Shigella; assay type: cell-based; conditions: Shigella strain ND024108
Description: (§2) Determination of MIC. MICs were determined in MHB by the broth microdilution methodology, according to CLSI procedure (formerly NCCLS, Ref. 11) by using final bacterial inocula of 1-5×10^5 CFU/mL. Assays were performed in sterile 96-well microtiter plates with round bottom wells (Corning Costar). Plates were incubated at 37° C. and read after 20-24 h. MIC was defined as the lowest drug concentration causing complete suppression of visible bacterial growth. All compounds were dissolved in (5% v/v DMSO).
(§3) These compounds were tested against a large panel of Gram-negative clinical isolates and the relative MIC values were reported in Table 5 (parts 1-3)

[2] = system: Pseudomonas aeruginosa ATCC 27853; assay: MIC by broth microdilution, P. aeruginosa reference strain; assay type: cell-based
Description: as §2
(§4) These peptides were synthesized individually, in order to assay the activity of each sequence.

[3] = system: P. aeruginosa ATCC 27853 24-hours biofilm; assay type: cell-based, Pseudomonas aeruginosa; conditions: ATCC 27853, 4 h
Description: An exponential phase inoculum of Pseudomonas aeruginosa ATCC 27853 of approximately 1×10^7 CFU/mL was poured into a reagent reservoir of Innovotech plates for MBEC™ High-throughput assay (Innovotech Inc., Edmonton, Canada). 22 mL of inoculum were added to the trough and the peg lid was placed onto. The device was placed on the shaking incubator at 80 rpm in a humidified box at 37° C.
After 24 hours of incubation, the pegs were rinsed into a plate containing 200 uL of physiological solution to remove loosely adherent planktonic cells from the biofilm and then were put in a microplate containing 200 uL of different antibiotic solutions serially diluted in TSB.
Following 4 hours of contact and incubation at 37° C. on the shaking incubator, the peg lid was removed from the trough and submersed in a rinse plate for 2 minutes.
Then a new microtitre with saline solution containing the sample pegs was put in the tray of the ultrasonic cleaner and sonicated for 30 minutes to disrupt biofilm from the surface of the 96 pegs.
Duplicate 0.01 or 0.005 mL aliquots of ten fold serial dilution of each well, were spread on MHA plate and colonies were read for viable cell counting after 24 hours of incubation.

[4] = In vitro cytotoxicity, MTT dye reduction assay, HaCat; assay type: cell-based; conditions: human, HaCat cells (human keratinocytes)
Description: as §1

Proteus mirabilis = assay type: cell-based
Description: as §2, §3

Acinetobacter iwoffi = assay type: cell-based
Description: as §2, §3

Serratia marcescens = assay type: cell-based
Description: as §2, §3

Pseudomonas aeruginosa = assay type: cell-based
Description: as §2, §3

Enterobacter cloacae = assay type: cell-based
Description: as §2, §3

Acinetobacter baumannii = assay type: cell-based
Description: as §2, §3

Klebsiella pneumoniae = assay type: cell-based
Description: as §2, §3

Klebsiella oxytoca = assay type: cell-based
Description: as §2, §3

[5] = system: Stenotrophomonas maltophilia; assay type: cell-based
Description: as §2, §3

Escherichia coli = assay type: cell-based
Description: as §2, §3

E. coli ATCC 25922 = assay: MIC by broth microdilution, E. coli reference strain; assay type: cell-based, Escherichia coli
Description: as §2
All natural aminoacids have been divided into three groups based on their chemical-physical properties. A total amount of 27 minilibraries, each one containing six peptide in equimolar amounts, were obtained and assayed against E. coli ATCC 25922 as reference strain. MIC (Minimum Inhibitory Concentration) is defined as the lowest concentration inhibiting 100% of visible growth.

[6] = In vitro cytotoxicity, MTT dye reduction assay, HepG2; assay type: cell-based; conditions: human, HepG2 cells (human hepatocellular liver carcinoma)
Description: as §1

E. coli EC47 = assay type: cell-based, Escherichia coli
Description: Test and reference compounds, ID24 and colistin sodium methanesufonate (CMS) respectively, were dissolved in 0.1 M phosphate-buffered saline pH 6.9, at the required drug concentrations. Solutions were made just before administration, and stored at 4° C. until the end of scheduled treatments, ID24 MIC value on E. coli EC47 strain is 2 ug/mL [MIC was determined by the broth microdilution method in Muller Hinton medium (NCCLS guidelines), using bacterial inoculum of approximately 10^5 CFU/mL].

[7] = system: Staphylococcus aureus ATCC 25923
Description: as §2, §4

[8] = system: Klebsiella pneumoniae ATCC 10031; assay: MIC by broth microdilution, K. pneumoniae reference strain; assay type: cell-based
Description: as §2, §4

whole blood = assay type: cell-based
Description: Whole blood was collected in a sterile tube with a 4% w/v sodium citrate solution (in a 1:10 ratio sodium citrate:whole blood) and conserved in ice. Serial dilutions of ID24 (1 mg/mL to 62.5 ug/mL) were added to whole blood in a ratio 1:1 or 1:10. The haemolytic potential was expressed relative to saponine, added in the same ratio, considered as 100% haemolysis. The negative control was whole blood in physiologic solution, which gave minimal lysis. 100 uL aliquots of each suspension were added in sterile 96-well microtiter plates (Nunc) in triplicate. The plates were incubated at 37° C. for 30 minutes.
Subsequently, the suspension were pelletted by centrifugation at 1000 g for 10 minutes at 4° C. One hundred microliters of supernatant from each well was transferred accordingly to a new 96-well microtiter plate, and the amount of haemoglobin released into the supernatant was determined by reading the absorbance at 560 nm.
In Table 8, haemolysis percentages of different amounts of ID24 in a 1:1 ratio with whole blood are listed, while in Table 9 haemolysis percentages of different amounts of ID24 in a 1:10 ratio with whole blood are reported. The amount of haemoglobin released into the supernatant was determined by reading the absorbance at 560 nm.

[9] = IP administration, up to the highest dose of 40 mg/kg

Row | Compound | MIC (Shigella) [µg/mL] | MIC (ug/mL) P. aeruginosa ([2]; Table 4) [µg/mL] | MIC (Proteus mirabilis) [µg/mL] | MIC Range (Proteus mirabilis) [µg/mL] | MIC (Acinetobacter iwoffi) [µg/mL] | MIC (Serratia marcescens) [µg/mL] | MIC Range (Pseudomonas aeruginosa) [µg/mL] | MIC Range (Enterobacter cloacae) [µg/mL] | MIC Range (Acinetobacter baumannii) [µg/mL] | MIC Range (Klebsiella pneumoniae) [µg/mL] | MIC Range (Klebsiella oxytoca) [µg/mL] | MIC Range [5] [µg/mL] | MIC Range (Escherichia coli) [µg/mL] | MIC (ug/mL) E. coli (E. coli ATCC 25922; Table 4) [µg/mL] | also measured
1 | CC[C@H](C)[C@H](NC(=O)[C@H](CCCCN)NC(=O)[C@H](CCCCN)NC(=O)[C@@H](N)Cc1c[nH]c2ccccc12)C(=O)N[C@@H](CCCNC(=N)N)C(=O)N[C@H](C(=O)N[C@@H](CCCNC(=N)N)C(=O)N[C@@H](CC(C)C)C(=O)N[C@@H](CO)C(=O)N[C@@H](C)C(=O)NCCCC[C@H](NC(=O)[C@H](C)NC(=O)[C@H](CO)NC(=O)[C@H](CC(C)C)NC(=O)[C@H](CCCNC(=N)N)NC(=O)[C@@H](NC(=O)[C@H](CCCNC(=N)N)NC(=O)[C@@H](NC(=O)[C@H](CCCCN)NC(=O)[C@H](CCCCN)NC(=O)[C@@H](N)Cc1c[nH]c2ccccc12)[C@@H](C)CC)C(C)C)C(=O)NCCCCCCCC(N)=O)C(C)C [ID24, (H-W-KKIRVRLSA)2-Lys-8-Aoa-NH2] (I: H-WKKIRVRLSAK[Aoc]-NH2 / II: H-WKKIRVRLSA; amide I:11-II:C) | 4 (≈ 1.45 µM) | 32 (≈ 11.6 µM) | >128 | >128 | 32 (≈ 11.6 µM) | >128 | 8 to 16 | 4 to 16 | 8 to 16 | 4 to 16 | 16 to 32 | 8 to 32 | 4 to 32 | 4 (≈ 1.45 µM) | symptoms and behavioural alterations (Irwin Test) (In vivo acute toxicity; 20 mg/kg single intraperitoneal injection): no behavioural alterations; symptoms and behavioural alterations (Irwin Test) (In vivo acute toxicity; 40 mg/kg single intraperitoneal injection): no behavioural alterations; adverse symptoms (In vivo acute toxicity; [9]): No adverse symptoms; deaths (In vivo acute toxicity; [9]): no deaths; CC50 at 24 h [1]: 156 nM; CC50 at 24 h ([1]; HeLa, 24 hours incubation, MTT, read-out: CC50 ID24): 430 µg/mL; percentage of inhibition of bacteria biofilm [3]: 88.7-99.9%; CC50 at 24 h [4]: 160 nM; CC50 at 24 h ([4]; HaCat, 24 hours incubation, MTT, read-out: CC50 ID24): 442 µg/mL; CC50 at 24 h [6]: 78 nM; CC50 at 24 h ([6]; HepG2, 24 hours incubation, MTT, read-out: CC50 ID24): 215 µg/mL; MIC value on E. coli EC47 strain (E. coli EC47): 2 µg/mL (≈ 0.724 µM)
2 | H-VKKIRVRLSA-OH [ID5, H-V-KKIRVRLSA-OH] | – | – | – | – | – | – | – | – | – | – | – | – | – | – | MIC (ug/mL) S. aureus [7]: 512 µg/mL; MIC (ug/mL) P. aeruginosa ([2]; ATCC 27853): 512 µg/mL; MIC (ug/mL) E. coli (E. coli ATCC 25922; ATCC 25922): 512 µg/mL; MIC (ug/mL) K. pneumoniae ([8]; ATCC 10031): >512 µg/mL
3 | saponine | – | – | – | – | – | – | – | – | – | – | – | – | – | – | Haemolysis % (whole blood): 100%; Haemolysis, % (whole blood): 100%
4 | CC[C@H](C)[C@H](NC(=O)[C@H](CCCCN)NC(=O)[C@H](CCCCN)NC(=O)[C@@H](N)Cc1c[nH]c2ccccc12)C(=O)N[C@@H](CCCNC(=N)N)C(=O)N[C@H](C(=O)N[C@@H](CCCNC(=N)N)C(=O)N[C@@H](CC(C)C)C(=O)N[C@@H](CO)C(=O)N[C@@H](C)C(=O)NCCCC[C@H](NC(=O)[C@H](C)NC(=O)[C@H](CO)NC(=O)[C@H](CC(C)C)NC(=O)[C@H](CCCNC(=N)N)NC(=O)[C@@H](NC(=O)[C@H](CCCNC(=N)N)NC(=O)[C@@H](NC(=O)[C@H](CCCCN)NC(=O)[C@H](CCCCN)NC(=O)[C@@H](N)Cc1c[nH]c2ccccc12)[C@@H](C)CC)C(C)C)C(=O)NCCC(N)=O)C(C)C [ID18, (H-W-KKIRVRLSA)2-Lys-β-Ala-NH2] (I: H-WKKIRVRLSAK[βAla]-NH2 / II: H-WKKIRVRLSA; amide I:11-II:C) | 4 (≈ 1.49 µM) | 32 (≈ 11.9 µM) | >128 | >128 | 16 (≈ 5.94 µM) | >128 | 8 to 16 | 4 to 32 | 8 to 16 | 4 to 16 | 32 (≈ 11.9 µM) | 8 to 32 | 2 to 32 | 4 (≈ 1.49 µM) | MIC (Klebsiella oxytoca): 32 µg/mL (≈ 11.9 µM); MIC (ug/mL) K. pneumoniae ([8]; Table 4): 32 µg/mL (≈ 11.9 µM)
